Measurements: ChEMBL document CHEMBL1201862, “PubChem BioAssay data set” (2004)
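Tested at 5 concentrations; 48 h exposure; 96-well plates; endpoints linearly interpolated, else capped at highest concentration. GI50 = concentration required for 50% inhibition of growth.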 Calls of active or inactive are those of the source. Cut-off read from the data, not from the text of the source: active = GI50 up to about 1.1 µM and inactive = higher. Residues, ends and D or L forms follow the SMILES beside them. *: point of attachment. Cbz = O=C(OCc1ccccc1)*

Experiments:
Assay in all cases: NCI-60 cell line screen, 48 h
[1] = tested on: CAKI-1
[2] = tested on: 786-0
[3] = tested on: OVCAR-3
[4] = tested on: U-251
[5] = tested on: SF-539
[6] = tested on: SNB-75
[7] = tested on: NCI-H226
[8] = tested on: SF-268
[9] = tested on: UACC-62
[10] = tested on: SK-OV-3
[11] = tested on: TK-10
[12] = tested on: A549
[13] = tested on: SN12C
[14] = tested on: HOP-92
[15] = tested on: Malme-3M
[16] = tested on: HT-29
[17] = tested on: RPMI-8226
[18] = tested on: NCI-H522
[19] = tested on: CCRF-CEM
[20] = tested on: HCC 2998

SMILES | GI50 [1] | GI50 [2] | GI50 [3] | GI50 [4] | GI50 [5] | GI50 [6] | GI50 [7] | GI50 [8] | GI50 [9] | GI50 [10] | GI50 [11] | GI50 [12] | GI50 [13] | GI50 [14] | GI50 [15] | GI50 [16] | GI50 [17] | GI50 [18] | GI50 [19] | GI50 [20]
COC(=O)C(=O)C(C(=O)C(=O)Nc1ccc([N+](=O)[O-])cc1C#N)c1nc2ccc([N+](=O)[O-])cc2nc1O (centres undefined) | 94.6 µM (inactive) | > 100 µM (inactive) | > 100 µM (inactive) | > 100 µM (inactive) | > 100 µM (inactive) | > 100 µM (inactive) | 57.5 µM (inactive) | > 100 µM (inactive) | > 100 µM (inactive) | > 100 µM (inactive) | > 100 µM (inactive) | > 100 µM (inactive) | > 100 µM (inactive) | 93.1 µM (inactive) | > 100 µM (inactive) | > 100 µM (inactive) | > 100 µM (inactive) | > 100 µM (inactive) | > 100 µM (inactive) | 
O=[N+]([O-])c1ccc(N/N=C(\c2ccccc2)c2ccccn2)nc1 | 0.497 µM (active) | 0.906 µM (active) | 0.409 µM (active) | 1.26 µM (inactive) | 1.52 µM (inactive) | 7.06 µM (inactive) |  | 2.51 µM (inactive) | 2.5 µM (inactive) | 4.86 µM (inactive) |  | 4.48 µM (inactive) | 0.429 µM (active) | 10.5 µM (inactive) | 0.0367 µM (active) | 0.0253 µM (active) | 0.59 µM (active) | 0.0794 µM (active) | < 0.0218 µM (active) | 5.46 µM (inactive)
CC1(C)C2C/C(=C\c3ccccc3)C(=O)C1C2 (centres undefined) | > 100 µM (inactive) | > 100 µM (inactive) | > 100 µM (inactive) | > 100 µM (inactive) | > 100 µM (inactive) | 25.1 µM (inactive) |  | 79.8 µM (inactive) | > 100 µM (inactive) | > 100 µM (inactive) | > 100 µM (inactive) | 93.5 µM (inactive) | > 100 µM (inactive) | > 100 µM (inactive) | > 100 µM (inactive) | 87.9 µM (inactive) | 61.8 µM (inactive) | 40.9 µM (inactive) | > 100 µM (inactive) | > 100 µM (inactive)
COc1ncc(C=C(C#N)C#N)c(OC)n1 | 36.1 µM (inactive) | 19.3 µM (inactive) | 57.9 µM (inactive) | 43.6 µM (inactive) | 30.8 µM (inactive) | > 100 µM (inactive) | > 100 µM (inactive) | 61.8 µM (inactive) | 33.8 µM (inactive) | > 100 µM (inactive) | 37.3 µM (inactive) | > 100 µM (inactive) | 26.8 µM (inactive) | > 100 µM (inactive) | 35.2 µM (inactive) | 40 µM (inactive) | 24 µM (inactive) | 16.7 µM (inactive) | 7.48 µM (inactive) | 
COc1ccc(OC)c2c1C=CC(Br)=CC2 | 0.269 µM (active) | 0.193 µM (active) | 0.276 µM (active) | 0.43 µM (active) | 0.653 µM (active) |  | 0.372 µM (active) | 0.313 µM (active) | 0.137 µM (active) | 0.0582 µM (active) | 0.292 µM (active) | 0.303 µM (active) | 0.372 µM (active) | 0.148 µM (active) | 0.145 µM (active) | 0.136 µM (active) | 0.162 µM (active) | 0.223 µM (active) | 0.39 µM (active) | 0.195 µM (active)
CNC(=S)Nc1ccc(OC)c2ccccc12 | > 10 µM (inactive) | > 10 µM (inactive) | 2.88 µM (inactive) | > 10 µM (inactive) | > 10 µM (inactive) | 4.43 µM (inactive) |  | > 10 µM (inactive) | > 10 µM (inactive) | > 10 µM (inactive) | > 10 µM (inactive) | > 10 µM (inactive) | > 10 µM (inactive) | > 10 µM (inactive) | > 10 µM (inactive) | > 10 µM (inactive) | > 10 µM (inactive) | > 10 µM (inactive) | > 10 µM (inactive) | > 10 µM (inactive)
O=C(O)c1cccc(/N=N/c2c(S(=O)(=O)O)ccc3c2C(=O)c2ccccc2C3=O)c1O | > 100 µM (inactive) | > 100 µM (inactive) | > 100 µM (inactive) | > 100 µM (inactive) | > 100 µM (inactive) | > 100 µM (inactive) | > 100 µM (inactive) | > 100 µM (inactive) | > 100 µM (inactive) | > 100 µM (inactive) | > 100 µM (inactive) | > 100 µM (inactive) | > 100 µM (inactive) | > 100 µM (inactive) | 54.6 µM (inactive) | > 100 µM (inactive) | > 100 µM (inactive) | > 100 µM (inactive) | > 100 µM (inactive) | 
O=C1CCCC/C1=C\c1ccc(Br)cc1 | 17 µM (inactive) | 16.6 µM (inactive) | 20.7 µM (inactive) | 2.99 µM (inactive) | 19.9 µM (inactive) | 16 µM (inactive) |  | 18.5 µM (inactive) | 6.61 µM (inactive) | 24.8 µM (inactive) | 16.7 µM (inactive) | 22.4 µM (inactive) | 17.6 µM (inactive) | 17.1 µM (inactive) | 7.73 µM (inactive) |  | 15.7 µM (inactive) | 14.8 µM (inactive) | 12.6 µM (inactive) | 23.2 µM (inactive)
CN1CCCN2CCN(C)CCN(CC1)CC2 | > 100 µM (inactive) | > 100 µM (inactive) | > 100 µM (inactive) | > 100 µM (inactive) | 0.0366 µM (active) | > 100 µM (inactive) |  | > 100 µM (inactive) | > 100 µM (inactive) | > 100 µM (inactive) | > 100 µM (inactive) | > 100 µM (inactive) | > 100 µM (inactive) | > 100 µM (inactive) | > 100 µM (inactive) | > 100 µM (inactive) | > 100 µM (inactive) | > 100 µM (inactive) | > 100 µM (inactive) | > 100 µM (inactive)
Cc1cc(-c2ccccc2)nc(Nc2nc3ccccc3o2)n1 | > 100 µM (inactive) | > 100 µM (inactive) | > 100 µM (inactive) | > 100 µM (inactive) | > 100 µM (inactive) |  | > 100 µM (inactive) | > 100 µM (inactive) | > 100 µM (inactive) | > 100 µM (inactive) | > 100 µM (inactive) | > 100 µM (inactive) | > 100 µM (inactive) | 89.3 µM (inactive) | > 100 µM (inactive) | > 100 µM (inactive) | > 100 µM (inactive) | > 100 µM (inactive) | 74 µM (inactive) | > 100 µM (inactive)
CS(=O)(=O)c1nc(N)nc2nc[nH]c12 | > 100 µM (inactive) | > 100 µM (inactive) | > 100 µM (inactive) | > 100 µM (inactive) | > 100 µM (inactive) |  | > 100 µM (inactive) | > 100 µM (inactive) | > 100 µM (inactive) | > 100 µM (inactive) | > 100 µM (inactive) | > 100 µM (inactive) | > 100 µM (inactive) | > 100 µM (inactive) |  | > 100 µM (inactive) | > 100 µM (inactive) | 74.8 µM (inactive) | > 100 µM (inactive) | > 100 µM (inactive)
COc1nc(N)nc2c1ncn2C1CC(O)C(CO)O1 (centres undefined) | > 100 µM (inactive) | > 100 µM (inactive) | > 100 µM (inactive) | > 100 µM (inactive) | > 100 µM (inactive) | > 100 µM (inactive) | > 100 µM (inactive) | > 100 µM (inactive) | > 100 µM (inactive) | > 100 µM (inactive) | > 100 µM (inactive) | > 100 µM (inactive) | > 100 µM (inactive) | > 100 µM (inactive) | > 100 µM (inactive) | > 100 µM (inactive) | > 100 µM (inactive) | > 100 µM (inactive) | > 100 µM (inactive) | 
N=C(N)c1ccc(/N=N/c2c(O)ccc3cc(O)ccc23)cc1 | > 100 µM (inactive) | > 100 µM (inactive) | > 100 µM (inactive) | > 100 µM (inactive) | > 100 µM (inactive) |  | > 100 µM (inactive) | > 100 µM (inactive) | > 100 µM (inactive) | > 100 µM (inactive) | > 100 µM (inactive) | > 100 µM (inactive) |  | > 100 µM (inactive) | 56.2 µM (inactive) | > 100 µM (inactive) | > 100 µM (inactive) | > 100 µM (inactive) | > 100 µM (inactive) | > 100 µM (inactive)
COc1cccc(-c2ccc3c4c2O[C@H]2c5[nH]c6ccccc6c5C[C@@]5(O)[C@@H](C3)N(CC3CC3)CC[C@]425)c1 | 2.1 µM (inactive) | 1.7 µM (inactive) | 1.9 µM (inactive) | 1.77 µM (inactive) | 1.78 µM (inactive) |  | 6.84 µM (inactive) | 1.61 µM (inactive) | 1.67 µM (inactive) |  | 1.72 µM (inactive) | 1.77 µM (inactive) | 1.67 µM (inactive) | 1.37 µM (inactive) | 1.5 µM (inactive) | 1.7 µM (inactive) | 2.18 µM (inactive) | 1.15 µM (inactive) | 3.29 µM (inactive) | 1.53 µM (inactive)
CC(NC(=O)C(NC(=O)OCc1ccccc1)C(C)C)C(=O)NCC(=O)O (stereo not drawn) (Cbz-Val-Ala-Gly-OH; configuration not given here) | > 100 µM (inactive) | > 100 µM (inactive) | > 100 µM (inactive) | > 100 µM (inactive) | > 100 µM (inactive) |  | > 100 µM (inactive) | > 100 µM (inactive) | > 100 µM (inactive) | > 100 µM (inactive) | > 100 µM (inactive) | > 100 µM (inactive) | > 100 µM (inactive) | > 100 µM (inactive) | > 100 µM (inactive) | > 100 µM (inactive) | > 100 µM (inactive) | > 100 µM (inactive) |  | > 100 µM (inactive)
